Reference: US9795131B2, “Sophorolactone compositions and uses thereof” (ECOVER CO-ORDINATION CENTER N.V., priority 2011, dated 2017)
Several values for one entry are separate records, joined by “and”; a condition that tells them apart may be missing. Equal values may be shown once.

Tests used:
[1] = Capacity of solvents to dissolve sophorolactone; assay type: physicochemical; conditions: percent sophorolactone dissolved by the solvent at room temperature
[2] = OK / NOK; cited from earlier work
Film forming properties = assay type: physicochemical
From the text: This experiment was repeated with pieces of leek with the same outcome. […] The latter destructive detection method necessitated several PVC strips to be used, each strip lasting an extra rinse cycle before detection.

[3] = Contact angle of isoamyl lactate / partial sophorolipid hydrolysate mixtures; assay type: physicochemical; conditions: room temperature, sessile drop; FIG. 4
Method: The contact angle of combinations of isoamyl lactate (Galactic) with partial sophorolipid hydrolysate (0.7 mol equivalent) on white PVC-strips (Leneta) was measured at room temperature with a Krüss DSA100 tensiometer using the sessile drop method. Each component of the mixtures is at maximum 1% active matter. Results are evaluated with the software Statistica.

Solubility in water = assay type: physicochemical
[4] = Contact angle of deionized water on treated substrate, without or with rinses; assay type: physicochemical; conditions: for Contact angle Rinse 1 / Contact angle Rinse 2 / Contact angle Rinse 3 / Contact angle Rinse 4 / Contact angle Rinse 5 / Contact Angle: PVC, in ° (unit assumed); for Contact angle Rinse 1: after rinse 1; for Contact angle Rinse 2: after rinse 2; for Contact angle Rinse 3: after rinse 3; for Contact angle Rinse 4: after rinse 4; for Contact angle Rinse 5: after rinse 5; for Contact Angle: before rinsing, NM = not measurable due to an extremely low contact angle
Method: A test composition was made by dissolving 10% sophorolactone in ethanol. […] […] Substrates used were glass, polyvinylchloride (PVC) and leek leaves.
(§1) Several contact angle measurements were performed on each substrate.
The results obtained were for solutions wherein lactone was replaced by sodium lauryl sulphate (SPS), APG600 (a C10-C16 alkylpolyglucoside), wild type or crude sophorolipid (as obtained after fermentation, denominated as WT in Table 2), FAEO/PO nonionic (CAS 68439-51-0, C12-14 fatty alcohol, 5 mole EO, 4 mol EO), modified FAEO/PO (C8/10 fatty alcohol+1 PO+22 EO (2-hydroxydecyl)-ether) and siloxane polyether copolymer (Silwet Hydrostable 68). […]

[5] = as above; assay type: physicochemical; conditions: 1% active; for Contact angle Rinse 2: after rinse 2; for Contact angle Rinse 2 / Contact angle Rinse 3 / Contact angle Rinse 1 / Contact Angle: in ° (unit assumed); for Contact angle Rinse 3: after rinse 3; for Contact angle Rinse 1: after rinse 1; for Contact Angle: before rinsing, NM = not measurable due to an extremely low contact angle
Method: A test composition was made by dissolving 10% sophorolactone in ethanol. […] Different substrates are wetted with said 1% lactone dispersion and dried in a climate chamber at 40° C. Substrates used were glass, polyvinylchloride (PVC) and leek leaves.
as §1
The results obtained were for solutions wherein lactone was replaced by sodium lauryl sulphate (SPS), APG600 (a C10-C16 alkylpolyglucoside), wild type or crude sophorolipid (as obtained after fermentation, denominated as WT in Table 2), FAEO/PO nonionic (CAS 68439-51-0, C12-14 fatty alcohol, 5 mole EO, 4 mol EO), modified FAEO/PO (C8/10 fatty alcohol+1 PO+22 EO (2-hydroxydecyl)-ether) and siloxane polyether copolymer (Silwet Hydrostable 68).
This experiment was repeated with different substrates and different 1% active surfactant solutions as elaborated in Table 2.

Antifogging test = assay type: physicochemical; conditions: mirror treated with 10% solution in water of 10% sophorolactone in ethanol, dried
Method: The other half of the mirror was treated with a 10% solution of ethanol.

Propionibacterium acnes = assay: Effectiveness against acne bacterium; assay type: cell-based
dust mite proteins = assay: Denaturation of dust mite proteins; assay type: biochemical
[6] = Allergic reaction to house dust mite excrements
[7] = Sensitivity to hard water; assay type: physicochemical

## CO[C@H]1CO[C@H]2[C@@H]1OC[C@H]2OC [Dimethyl isosorbide]
[1]
  % lactone dissolved: 31.89%
[2]
  GRAS status: NOK

## CCCCCCO [Hexanol]
[1]
  % lactone dissolved: 2.65%

## Cc1ccc(C(C)C)c(O)c1 [Thymol, thymol, reference compound]
Film forming properties; 1% dispersion of 10% lactone, 10% thymol, 80% ethanol solution, smell and sulfuric acid colour
  retention of active on PVC substrate: remained fixed on the PVC substrate for several rinses

## OCCOc1ccccc1 [Phenoxyethanol]
[2]
  GRAS status: NOK

## COC(C)COC(C)CO (stereo not drawn) [DPM, dipropyleneglycol methyl ether]
[1]
  % lactone dissolved: 28.93%
[2]
  GRAS status: NOK

## OCC(O)CO [Glycerol]
[1]
  % lactone dissolved: <1%

## CC(C)CCOC(=O)C(C)O (stereo not drawn) [Isoamyl lactate]
[1]
  % lactone dissolved: 21.2%
[3]
  concentration at maximal PVC wetting: ~1.2%
Solubility in water
  solubility in water: ≤ 1%
[2]
  GRAS status: NOK

## CCCCCCCCCCCCOS(=O)(=O)[O-].[Na+] [SLS, sodium lauryl sulphate, reference compound]
[4]; 1% active, sulphate
  Contact angle Rinse 1: 72 and 100 and 96
  Contact angle Rinse 2: 102 and 94 and 90
  Contact angle Rinse 3: 64 and 65
  Contact angle Rinse 4: 75 and 84 and 102
  Contact angle Rinse 5: 100 and 99 and 101
[4]; 1% active
  Contact Angle: 1
[5]; glass, sulphate
  Contact angle Rinse 2: 33.2 and 64.2 and 33.8
  Contact angle Rinse 3: 37.3 and 40.3 and 51.8
[5]; glass, after rinse 4, sulphate
  Contact angle Rinse 4: 50.8 and 36.2
[5]; glass, after rinse 5, sulphate
  Contact angle Rinse 5: 34 and 38 and 30

## OCCCO [1.3 propanediol]
[1]
  % lactone dissolved: 2.75%

## CC(C)O [Isopropanol]
[1]
  % lactone dissolved: 2.2%

## sophorolactone
[4]; 1% lactone dispersion made using hard water
  contact angles and rinse resistance: equally low contact angles and excellent rinse resistance
[4]; 0.1% Lactone
  Contact angle Rinse 1: 66 and 67 and 79
  Contact angle Rinse 2: 90 and 80
[4]; 1% active in hard water (200 ppm CaCO3)
  Contact angle Rinse 1: 19 and 20 and 21
[4]; 1% active in hard water
  Contact angle Rinse 2: 14 and 15
  Contact angle Rinse 3: 12 and 17 and 14
  Contact angle Rinse 4: 11 and 12
  Contact angle Rinse 5: 12 and 11 and 10
[4]; 1% active
  Contact angle Rinse 2: 0
  Contact Angle: 7 and 10
[4]; 1% active, listed as lactone
  Contact angle Rinse 2: 8.4 and 16
[4]; hydrophobic surface such as PVC and leek
  wetting by water after rinses: excellent wetting by water even after 5 rinses
[5]; glass
  Contact angle Rinse 1: 15.3 and 10 and 12
  Contact angle Rinse 2: 24.4 and 30 and 25
  Contact angle Rinse 3: 23.5 and 27.8 and 25
  Contact Angle: 14.2 and 14.1 and 11.3 and 10
[5]; leek
  Contact angle Rinse 1: 25 and 26 and 28
  Contact Angle: 28 and 27 and 25
Film forming properties; 1% sophorolactone dispersion in water made from 10% solution in ethanol
  stability of dispersion: remained stable overnight at room temperature without visual separation
Film forming properties; 10% sophorolactone in benzyl alcohol applied to a PVC sheet, air dried
  removability of dried layer by water: virtually impossible to remove with running tap water or with repeated rinsing with water
Film forming properties; PVC sheet, 1% sophorolactone dispersion, air dried
  repeated rinse and dry cycles withstood by layer: at least 5 cycles
Antifogging test
  condensation or fogging above boiling water: not visually covered with condensation water and retained its mirror properties
Propionibacterium acnes
  effectiveness against Propionibacterium acnes: effective
Dust mite proteins
  denaturation of dust mite proteins: denatures dust mite proteins
[6]
  allergic reaction to excrements of house dust mites: effectively reduces the allergic reaction
Phytotoxicity
  phytotoxicity: not phytotoxic
[7]
  sensitivity to hard water: insensitive to hard water

## CC(O)CO (stereo not drawn) [Propylene glycol]
[1]
  % lactone dissolved: 9.05%

## CCCOCC(C)O (stereo not drawn) [PNP, 1-propoxy 2-propanol]
[1]
  % lactone dissolved: 15.57%

## OCc1ccccc1 [Benzylalcohol]
[1]
  % lactone dissolved: 67.35%

## CCOC(C)=O [Ethylacetate]
[1]
  % lactone dissolved: 3.96%

## CCCCCCC(O)CO (stereo not drawn) [Caprylyl Glycol]
[1]
  % lactone dissolved: 8.65%

## CC(=O)O [Glacial acetic]
[1]
  % lactone dissolved: 23.65%

## CCCCOCC(C)O (stereo not drawn) [PNB Henkel]
[1]
  % lactone dissolved: 6.73%

## CC1(C)OCC(CO)O1 (stereo not drawn) [2-3-o-isopropyliden glycerin, (2,2-dimethyl-[1,3]dioxolan-4-yl)-methanol]
[2]
  GRAS status: NOK

## O=C1OCC(CO)O1 (stereo not drawn) [Glycerincarbonate]
[1]
  % lactone dissolved: <1%

## Glycerin formal
[1]
  % lactone dissolved: 35%

## OCCCc1ccccc1 [Hydrocinnamylalcohol]
[1]
  % lactone dissolved: 32.5%

## CCCCOC(=O)C(C)O (stereo not drawn) [Butyl lactate]
[1]
  % lactone dissolved: 20%

## C=C(C)[C@H]1CC=C(C)CC1 [D-limonene]
[1]
  % lactone dissolved: 8.5%

## CCO [Ethanol]
[1]
  % lactone dissolved: 7.5%

## OCCc1ccccc1 [Phenetyl alcohol]
[1]
  % lactone dissolved: 22%
